In article PMC12615753, “Glutathione as a taste modulator: molecular mechanisms of interaction with umami and sweet taste receptors” (Food Chemistry: Molecular Sciences, 2025):

Biological target: T1, hTAS1R1 S306A/rTAS1R3 (Homo sapiens, UniProt Q7RTX1, S306A)
T1 construct: expressed in transfected cells; host or cells: HEK293T/17 (ATCC CRL-11268)
T1 sequence (Q7RTX1 21-841 S306A): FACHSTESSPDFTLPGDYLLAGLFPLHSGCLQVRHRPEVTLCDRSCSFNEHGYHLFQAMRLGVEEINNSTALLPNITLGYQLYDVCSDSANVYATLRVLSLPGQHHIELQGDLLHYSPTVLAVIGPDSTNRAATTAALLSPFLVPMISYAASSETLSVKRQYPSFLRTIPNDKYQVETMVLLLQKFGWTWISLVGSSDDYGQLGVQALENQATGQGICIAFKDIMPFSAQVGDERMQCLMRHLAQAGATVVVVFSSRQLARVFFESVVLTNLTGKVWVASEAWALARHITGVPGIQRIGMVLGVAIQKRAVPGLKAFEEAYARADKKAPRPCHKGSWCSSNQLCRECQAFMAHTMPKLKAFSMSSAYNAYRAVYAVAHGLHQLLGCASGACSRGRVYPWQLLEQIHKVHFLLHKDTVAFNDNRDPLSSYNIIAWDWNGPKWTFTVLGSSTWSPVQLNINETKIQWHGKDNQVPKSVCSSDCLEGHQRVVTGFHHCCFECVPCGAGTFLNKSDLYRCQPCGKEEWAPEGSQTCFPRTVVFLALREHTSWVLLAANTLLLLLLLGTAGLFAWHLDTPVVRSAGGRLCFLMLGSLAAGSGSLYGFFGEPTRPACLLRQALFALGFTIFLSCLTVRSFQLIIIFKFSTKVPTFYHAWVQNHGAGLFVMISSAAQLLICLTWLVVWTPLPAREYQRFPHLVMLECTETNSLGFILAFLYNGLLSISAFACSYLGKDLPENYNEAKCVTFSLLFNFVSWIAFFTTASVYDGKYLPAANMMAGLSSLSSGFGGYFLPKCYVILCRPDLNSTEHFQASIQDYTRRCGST
T1 sequence (Q923K1 21-858 partner): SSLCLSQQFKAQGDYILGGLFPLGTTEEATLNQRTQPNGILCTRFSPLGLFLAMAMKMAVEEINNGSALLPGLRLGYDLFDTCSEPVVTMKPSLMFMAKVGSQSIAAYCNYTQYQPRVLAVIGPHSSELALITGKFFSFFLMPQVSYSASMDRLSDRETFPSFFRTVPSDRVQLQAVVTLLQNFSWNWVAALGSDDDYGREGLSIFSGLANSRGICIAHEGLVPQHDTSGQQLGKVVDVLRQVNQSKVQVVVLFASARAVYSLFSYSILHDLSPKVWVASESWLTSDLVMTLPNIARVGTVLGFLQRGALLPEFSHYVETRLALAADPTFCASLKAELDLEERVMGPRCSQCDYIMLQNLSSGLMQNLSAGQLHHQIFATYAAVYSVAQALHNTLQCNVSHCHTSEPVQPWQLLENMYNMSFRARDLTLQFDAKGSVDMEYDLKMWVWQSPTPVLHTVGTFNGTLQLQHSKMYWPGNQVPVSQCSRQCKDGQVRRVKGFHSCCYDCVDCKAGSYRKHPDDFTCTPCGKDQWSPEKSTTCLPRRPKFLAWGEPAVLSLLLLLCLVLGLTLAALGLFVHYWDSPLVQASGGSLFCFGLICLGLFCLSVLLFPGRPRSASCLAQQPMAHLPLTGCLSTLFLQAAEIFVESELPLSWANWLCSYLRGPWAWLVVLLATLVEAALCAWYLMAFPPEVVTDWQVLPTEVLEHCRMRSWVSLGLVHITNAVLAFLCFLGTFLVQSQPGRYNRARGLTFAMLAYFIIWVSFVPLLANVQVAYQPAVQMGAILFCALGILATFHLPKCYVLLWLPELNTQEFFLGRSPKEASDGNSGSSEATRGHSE
Assay: Calcium assay, hTAS1R1 mutant co-expressed with rTAS1R3
Format: cell-based, rat

| SMILES | response to the agonist alone, vs WT (S306A) | EC50 [mM] | effect of the added compound (1 mM) on the response to L-Glu (S306A) |
| --- | --- | --- | --- |
| CCCC(CCC)NC(=O)c1ccc2c(c1)OCO2 [S807, N-(heptan-4-yl)benzo[d][1,3]dioxole-5-carboxamide, reference compound] | strongly affected |  |  |
| N[C@@H](CCC(=O)N[C@@H](CS)C(=O)NCC(=O)O)C(=O)O [GSH, γ-L-glutamyl-L-cysteinyl-glycine] | fully abolished | > 30 | did not affect |
